Measured values taken from article PMC10920779, “Targeting P2Y14R protects against necroptosis of intestinal epithelial cells through PKA/CREB/RIPK1 axis in ulcerative colitis” (Nature Communications, 2024).
Values joined by “and” are separate entries in the source; they are usually repeats but may differ in a detail not shown here. Identical values can stand only once.

Legend:
P2Y14R [1] = biological target: T1, P2Y14R (Homo sapiens, UniProt Q15391); assay: cAMP production assay for P2Y14R antagonistic activity in P2Y14-HEK293 cells
T1 sequence (Q15391 1-338): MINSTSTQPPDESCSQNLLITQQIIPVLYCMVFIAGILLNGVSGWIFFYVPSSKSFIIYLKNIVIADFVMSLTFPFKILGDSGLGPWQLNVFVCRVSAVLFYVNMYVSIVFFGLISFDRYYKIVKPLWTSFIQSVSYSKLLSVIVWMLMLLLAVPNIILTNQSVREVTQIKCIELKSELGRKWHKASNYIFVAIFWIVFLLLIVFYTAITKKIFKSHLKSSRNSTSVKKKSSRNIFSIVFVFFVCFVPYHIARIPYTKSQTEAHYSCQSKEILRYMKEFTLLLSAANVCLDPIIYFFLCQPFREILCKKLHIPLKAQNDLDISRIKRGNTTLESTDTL
Procedure: Data points shown are the mean values of at three independent experiments, each performed in duplicate. […] The data obtained from three independent experiments and represented as mean ± SD. Statistical significance was determined by One-way ANOVA with Tukey multiple comparison test.

HT-29 cells = assay: Cytotoxicity by CCK8 analysis in HT-29 cells; format: cell-based, human
Procedure: (§1) Necroptosis was induced by pretreatment with TNF‐α (20 ng·mL^−1) plus z‐VAD‐fmk (20 μM) and Smac mimetic (BV6, 2 μM) for 8 h, then stained cells with hematoxylin/eosin. For PI/Hoechst staining, cells were stained with PI and Hoechst for 20 min, then photographed with a fluorescence microscope and at least 300 cells were counted. The ratio of PI positive cells (%) = (PI positive cells) / (Hoechst positive cells) × 100%. For cell viability assay, CCK8 was added to the well and incubated for 1 − 2 h and then OD450 was measured using a multi-mode microplate reader (Cytation5, BioTek).

[2] = Cytotoxicity by CCK8 analysis in HT-29 cells; format: cell-based, human; settings: human, HT-29 cells, read-out: Cell viability (%)
Procedure: as §1

P2Y14R [3] = biological target: T1, P2Y14R; assay: Cellular thermal shift assay (CETSA) in P2Y14-HEK293 cells; format: binding
[4] = tested on: apoptosis and pyroptosis of IECs; assay: Apoptosis and pyroptosis markers in IECs of DSS-treated mice (TUNEL, cleaved caspase-3, Bcl-2, Bax, GSDMD-NT, caspase-1 p20); format: in vivo, mouse; parameters: GSDMD / caspase-1 / caspase-3: scale not given here; settings: for BAX/BCL / GSDMD / caspase-1 / caspase-3: replicates
Procedure: Tissues and cells were lysed using RIPA lysis buffer (Beyotime Biotechnology) containing protease and phosphatase inhibitor, homogenated, and centrifuged. The protein concentration was determined by BCA protein assay (Beyotime Biotechnology). Equal concentrations of proteins were separated in a 10% SDS-PAGE and transferred to PVDF membrane. The membrane was blocked using 5% milk in TBST, probed with primary antibody, RIPK1 (17519-1-AP, Proteintech, 1:1000), MLKL (GTX107538-100, GeneTex, 1:1000), RIPK3 (17563-1-AP, Proteintech, 1:1000), p-MLKL (EPR9514, Abcam, 1:1000), PKA (bs-0520R, Bioss, 1:1000), p-PKA (#9621, Cell signaling, 1:1000), CREB (AF6188, Affinity, 1:1000), p-CREB (AF3189, Affinity, 1:1000), P2Y14R (bs-12028R, Bioss, 1:1000), GSDMD (ab209845, Abcam, 1:1000), Caspase1 p20 (bs-10442R, Bioss, 1:1000), Bcl-2 (bs-0032R, Bioss, 1:1000), Bax (AF0120, Affinity, 1:1000), Caspase-3 p-17 (Cell Signaling Technology, #9664, 1:1000), β-actin (bs-0061R, Bioss, 1:1000), GAPDH (BS-2188R, Bioss, 1:1000) and corresponding HRP-conjugated antibodies Goat Anti-Rabbit IgG H&L Antibody (bioss, Bs-0295G, 1:8000) or Goat Anti-Mouse IgG H&L Antibody (bioss, Bs-0296G, 1:8000). Densitometry was quantified using ImageJ software.
Immunofluorescence staining was performed using paraffin-embedded tissues as mentioned before. For immunofluorescence, the paraffin slides were deparaffinized, rehydrated, blocked and treated according to a standard protocol. The expression of intestinal barrier associated tight junction protein, P2Y14R and EpCAM was evaluated by probing the tissues with primary antibody against Claudin-1 (bioss, bs-10011R, 1:300), Occludin (bioss, DF6919, 1:300), ZO-1 (Affinity, AF5145, 1:300), EpCAM (AiFang, AF04654, 1:300), Caspase-3 p-17 (Cell Signaling Technology, #9664, 1:1000) and P2Y14R (Invitrogen, PAS-103202, 1:300) overnight at 4°C followed by 1 h incubation with the corresponding secondary antibody Goat Anti-Mouse IgG H&L (Alexa Fluor® 555) (ab150114, Abcam, 1:500) or Goat Anti-Rabbit IgG H&L (Alexa Fluor® 488) (ab150077, Abcam, 1:300). All slides were incubated with DAPI (S2110, Solarbio) for 10 min to show the location of the nucleus. Images were captured with a confocal microscope (LSM 800, Zeiss).
TUNEL staining was performed using paraffin-embedded tissues as mentioned before. The staining was performed with apoptosis kit (11684817910, Roche) to detect apoptotic cells in colon sections according to the instructions of manufacturer. After the paraffin sections conventional dewaxing to water, performed the antigen recovery with protease K working solution at 37°C for 22 min. Then incubated the sections with permeabilize working solution at room temperature for 20 min. Next, take appropriate amount of TDT enzyme, dUTP and buffer in the tunel kit according to the number of slices and tissue size and mix at 1:5:50 ratio, and used to incubate the tissues at 37°C for 1 h. Finally, the DAPI dye (S2110, Solarbio) was used to stain nucleus at room temperature for 10 min. Images were captured with NanoZoomer S60 (C13210-01, Hamamatsu).

Solubility = format: physicochemical; settings: compared with compound D4
[5] = parameters: method as in PMID 24138077; settings: cited from earlier work

## Brc1ccc(NCc2nc3ccccc3o2)cc1 [HDL-16]
P2Y14R [1]
  IC50: 0.31 nM
P2Y14R [1]; 10 nM, 0.01 µM
  Inhibition of cAMP production in P2Y14-HEK293 cells, Inhibition (%): 84.08% and 80.86%
P2Y14R [1]; 100 nM, 0.1 µM
  Inhibition of cAMP production in P2Y14-HEK293 cells, Inhibition (%): 122.69% and 101.65% and 74.17%
P2Y14R [1]; read-out: Inhibition of cAMP production in P2Y14-HEK293 cells, Inhibition (%), 10 nM
  inhibition at 0.01 µM: 94%
HT-29 cells; 1 nm
  Cell viability (%): 114%
HT-29 cells; 1 μm
  Cell viability (%): 116%
HT-29 cells; 10 nm
  Cell viability (%): 95% and 93% and 119% and 111%
HT-29 cells; 10 μm
  Cell viability (%): 115% and 106% and 113%
HT-29 cells; 100 nm
  Cell viability (%): 110% and 99%
HT-29 cells; CCK8, 12 h, under the concentration of 10 μM
  Cytotoxicity in HT-29 cells: almost no cytotoxicity
[2]; 1 nm
  viability at 12 h, 1 nM: 108%
[2]; 1 μm
  viability at 12 h, 1 µM: 117%
[2]; 10 μm
  viability at 12 h, 10 µM: 103%
[2]; 100 nm
  viability at 12 h, 100 nM: 109%
P2Y14R [3]; 10 µM, high temperature 50°C to 60°C
  Thermal stability of P2Y14R: increased the thermal stability of P2Y14R
P2Y14R [3]; 50 °C
  p2y14/actin: 0.9863 and 0.7504 and 1.263
P2Y14R [3]; 52 °C
  p2y14/actin: 0.8682 and 0.8052 and 1.097
P2Y14R [3]; 54 °C
  p2y14/actin: 0.8235 and 0.8131 and 0.9578
P2Y14R [3]; 56 °C
  p2y14/actin: 0.6752 and 0.6905 and 0.8001
P2Y14R [3]; 58 °C
  p2y14/actin: 0.4486 and 0.4259 and 0.4526
P2Y14R [3]; 60 °C
  p2y14/actin: 0.3634 and 0.3497 and 0.2374
P2Y14R [3]; con 0.001 µM
  p2y14/actin: 0.1618 and 0.1023 and 0.1705
P2Y14R [3]; con 0.1 µM
  p2y14/actin: 0.6503 and 0.6207 and 0.4614
P2Y14R [3]; con 1 µM
  p2y14/actin: 0.7977 and 0.6147 and 1.014
P2Y14R [3]; con 10 µM
  p2y14/actin: 1.142 and 0.89 and 0.9685
P2Y14R [3]; different concentrations
  Melting temperature (Tm) of P2Y14R: increased the melting temperature (Tm) of P2Y14R in a dose-dependent manner
[4]; DSS+HDL-16-H (high dose)
  BAX/BCL: 7.829 and 4.146 and 3.473 and 3.902 and 4.249
  GSDMD: 1.314 and 1.225 and 1.812 and 1.35 and 1.898
  caspase-1: 2.375 and 1.892 and 1.815 and 1.586 and 3.381
  caspase-3: 2.22 and 2.236 and 2.6476 and 2.354 and 2.345
[4]; DSS+HDL-16-L (low dose)
  BAX/BCL: 6.676 and 3.513 and 3.416 and 6.035 and 4.817
  GSDMD: 1.693 and 1.518 and 1.46 and 1.354 and 1.839
  caspase-1: 2.037 and 2.2873 and 0.9771 and 2.5083 and 2.278
  caspase-3: 2.396 and 2.3353 and 3.098 and 2.578 and 2.264
[4]; DSS-induced inflammation, TUNEL and western blot
  Apoptosis and pyroptosis of IECs: did not influence the apoptosis and pyroptosis
Solubility
  Solubility: increased solubility

## O=C(O)c1cc(-c2ccc(C3CCNCC3)cc2)c2ccc(-c3ccc(C(F)(F)F)cc3)cc2c1 [PPTN, reference compound]
[5]
  Oral bioavailability: low oral bioavailability
